Values quoted from earlier work in paper PMC7867784 (Translational Lung Cancer Research, 2021).
pIC50: −log10 of the molar value.

Test system: RET-fusion positive NSCLC cells
Conditions: cited from earlier work

Compound: CCc1cc2c(cc1N1CCC(N3CCOCC3)CC1)C(C)(C)c1[nH]c3cc(C#N)ccc3c1C2=O [alectinib]
- growth of RET-rearranged tumor cells (in vitro and in vivo, pre-clinical studies): inhibit the growth
- pIC50 (read-out: IC50 in RET-fusion positive NSCLC cells): > 6.52
